Source: paper PMC6465334, “Functional Analysis of MsepOR13 in the Oriental Armyworm Mythimna separata (Walker)” (Frontiers in Physiology, 2019)

Columns and labels:
[1] = biological target: T1, MsepOR13/Orco (MsepOR13/MsepOrco) (Mythimna separata, UniProt A0A650FIP0); assay: two-electrode voltage clamp, Xenopus oocytes, single concentration; assay type: cell-based; settings: MsepOrco co-expressed; holding potential -80 mV; 15 s exposure at 10^-4 M; agonist
T1 construct: gene OR13; full-length untagged MsepOR13, 408 aa (ORF 1227 bp), cloned from adult antennal cDNA; pT7Ts cRNA, Xenopus oocytes; with Odorant receptor coreceptor
T1 sequence (A0A650FIP0 1-408): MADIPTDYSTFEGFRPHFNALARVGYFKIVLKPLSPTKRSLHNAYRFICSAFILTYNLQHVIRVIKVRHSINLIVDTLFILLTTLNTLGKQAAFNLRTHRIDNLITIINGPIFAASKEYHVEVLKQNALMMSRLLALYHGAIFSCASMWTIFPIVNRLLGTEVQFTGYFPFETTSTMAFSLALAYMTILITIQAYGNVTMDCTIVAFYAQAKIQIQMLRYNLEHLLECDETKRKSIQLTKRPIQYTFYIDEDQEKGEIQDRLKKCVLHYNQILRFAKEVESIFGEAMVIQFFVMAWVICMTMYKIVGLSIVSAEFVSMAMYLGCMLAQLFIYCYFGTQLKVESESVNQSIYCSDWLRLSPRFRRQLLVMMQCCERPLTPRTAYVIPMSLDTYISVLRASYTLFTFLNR
T1 sequence (B5MEJ5 1-473 partner): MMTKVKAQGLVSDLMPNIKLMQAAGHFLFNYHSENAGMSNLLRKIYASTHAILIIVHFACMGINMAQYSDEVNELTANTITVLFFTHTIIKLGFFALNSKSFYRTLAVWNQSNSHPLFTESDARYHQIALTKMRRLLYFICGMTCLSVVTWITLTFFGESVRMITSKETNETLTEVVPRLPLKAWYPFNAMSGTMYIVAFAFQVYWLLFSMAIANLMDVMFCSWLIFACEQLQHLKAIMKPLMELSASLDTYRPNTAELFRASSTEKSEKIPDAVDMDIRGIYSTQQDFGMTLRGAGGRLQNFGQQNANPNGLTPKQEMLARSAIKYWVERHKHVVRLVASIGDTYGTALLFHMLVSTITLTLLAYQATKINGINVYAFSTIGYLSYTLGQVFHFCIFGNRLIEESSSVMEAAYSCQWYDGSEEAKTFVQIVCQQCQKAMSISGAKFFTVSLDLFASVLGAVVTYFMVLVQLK

[2] = biological target: T1, MsepOR13/Orco (MsepOR13/MsepOrco); assay: two-electrode voltage clamp, Xenopus oocytes, dose-response; assay type: cell-based

With `CCCCCCO` [1-Hexanol] the “current response at 10^-4 M” value [1] was 60 nA.
`CC(=O)c1ccccc1` [Acetophenone] was tested, and the “current response at 10^-4 M” value [1] was 523.3 nA.
`C=CCc1ccc(O)c(OC)c1` [Eugenol] was tested, and the EC50 [2] was 3.91 µM.
With `C=CCc1ccc(OC)c(OC)c1` [Methyl eugenol] the “current response at 10^-4 M” value [1] was ~ 1655 nA.
